Results as given in US8217029B2, “Oxazolidinone antibiotics” (Actelion Pharmaceuticals Ltd, priority 2007, dated 2012).
≈ marks a conversion by molar mass, not a printed value.

Test system: S aureus A798
Experiment: Minimal inhibitory concentration (MIC), microdilution method in cation-adjusted Mueller-Hinton Broth following NCCLS guidelines
Format: cell-based
Conditions: pH of test medium 7.2-7.3
Method: These assays have been performed following the description given in “Methods for dilution Antimicrobial Susceptibility Tests for Bacteria that Grow Aerobically, 4th ed.; Approved standard: NCCLS Document M7-A4; National Committee for Clinical Laboratory Standards Villanova, Pa., USA, 1997”. Minimal inhibitory concentrations (MICs; mg/l) were determined in cation-adjusted Mueller-Hinton Broth by a microdilution method following NCCLS guidelines (National Committee for Clinical Laboratory Standards. Methods for Dilution Antimicrobial Susceptibility). The pH of the test medium was 7.2-7.3. All Example compounds were tested against several Gram positive and Gram negative bacteria.

SMILES | MIC
COc1ccc2nccc(N3CC(N(C)C[C@@H]4CN(c5ccc(F)c(Cl)c5)C(=O)O4)C3)c2n1 [Example 136, (R)-3-(3-Chloro-4-fluoro-phenyl)-5-({[1-(6-methoxy-[1,5]naphthyridin-4-yl)-azetidin-3-yl]-methyl-amino}-methyl)-oxazolidin-2-one] | 0.25 µg/mL (≈ 0.53 µM)
COc1ccc2nccc(N3CCN(CC4CN(c5ccc6ccc(=O)[nH]c6c5)C(=O)O4)CC3)c2n1 (racemic) [Example 111, (RS)-7-{5-[4-(6-Methoxy-[1,5]naphthyridin-4-yl)-piperazin-1-ylmethyl]-2-oxo-oxazolidin-3-yl}-1H-quinolin-2-one] | 0.125 µg/mL (≈ 0.257 µM)
COc1ccc2nccc(N3CCN(C[C@H]4CN(c5ccc(C)c(F)c5)C(=O)O4)CC3)c2n1 [Example 38, (S)-3-(3-Fluoro-4-methyl-phenyl)-5-[4-(6-methoxy-[1,5]naphthyridin-4-yl)-piperazin-1-ylmethyl]-oxazolidin-2-one] | 0.063 µg/mL (≈ 0.14 µM)
COc1ccc(N2C[C@@H](CNC3CCN(c4ccnc5ccc(OC)nc45)CC3)OC2=O)cc1 [Example 183, (R)-5-{[1-(6-Methoxy-[1,5]naphthyridin-4-yl)-piperidin-4-ylamino]-methyl}-3-(4-methoxy-phenyl)-oxazolidin-2-one] | 0.25 µg/mL (≈ 0.539 µM)
COc1ccc2nccc(N3CCN(C[C@@H]4CN(c5ccc(OC)c(Cl)c5)C(=O)O4)CC3)c2n1 [Example 28, (R)-3-(3-Chloro-4-methoxy-phenyl)-5-[4-(6-methoxy-[1,5]naphthyridin-4-yl)-piperazin-1-ylmethyl]-oxazolidin-2-one] | 1 µg/mL (≈ 2.07 µM)
COc1ccc2nccc(N3C[C@@H]4C[C@H]3CN4C[C@@H]3CN(c4ccc5c(c4)NC(=O)CS5)C(=O)O3)c2n1 [Example 152, 6-{(R)-5-[(1S,4S)-5-(6-Methoxy-[1,5]naphthyridin-4-yl)-2,5-diaza-bicyclo[2.2.1]hept-2-ylmethyl]-2-oxo-oxazolidin-3-yl}-4H-benzo[1,4]thiazin-3-one] | 0.063 µg/mL (≈ 0.121 µM)
COc1ccc2nccc(N3CC(CNC[C@@H]4CN(c5ccc(C)c(F)c5)C(=O)O4)C3)c2n1 [Example 154, (R)-3-(3-Fluoro-4-methyl-phenyl)-5-({[1-(6-methoxy-[1,5]naphthyridin-4-yl)-azetidin-3-ylmethyl]-amino}-methyl)-oxazolidin-2-one] | 0.063 µg/mL (≈ 0.14 µM)
COc1ccc2nccc(N3CC(N(C)C[C@@H]4CN(c5ccc6ncsc6c5)C(=O)O4)C3)c2n1 [Example 144, (R)-3-Benzothiazol-6-yl-5-({[1-(6-methoxy-[1,5]naphthyridin-4-yl)-azetidin-3-yl]-methyl-amino}-methyl)-oxazolidin-2-one] | 0.063 µg/mL (≈ 0.132 µM)
COc1ccc2nccc(N3CC[C@@H](NC(=O)[C@@H]4CN(c5ccc(C)c(F)c5)C(=O)O4)C3)c2n1 [Example 62, (S)-3-(3-Fluoro-4-methyl-phenyl)-2-oxo-oxazolidine-5-carboxylic acid [(R)-1-(6-methoxy-[1,5]naphthyridin-4-yl)-pyrrolidin-3-yl]-amide] | ≤ 0.031 µg/mL

Results, then the compound that gave them:

MIC | SMILES
≤ 0.031 µg/mL | COc1ccc2ncnc(N3CC(NC[C@@H]4CN(c5ccc6c(c5)NC(=O)CS6)C(=O)O4)C3)c2c1 [Example 55, 6-((R)-5-{[1-(6-Methoxy-quinazolin-4-yl)-azetidin-3-ylamino]-methyl}-2-oxo-oxazolidin-3-yl)-4H-benzo[1,4]thiazin-3-one]
≤ 0.031 µg/mL | COc1ccc2nccc(N3CCC(CN(C)C[C@@H]4CN(c5ccc6c(c5)NC(=O)CS6)C(=O)O4)C3)c2n1 (mixture of isomers) [Example 117, 6-[(R)-5-({[(RS)-1-(6-Methoxy-[1,5]naphthyridin-4-yl)-pyrrolidin-3-ylmethyl]-methyl-amino}-methyl)-2-oxo-oxazolidin-3-yl]-4H-benzo[1,4]thiazin-3-one]
≤ 0.031 µg/mL | O=C1O[C@H](CN2CCN(c3ccnc4ccccc34)CC2)CN1c1ccc2c(c1)OCCO2 [Example 99, (R)-3-(2,3-Dihydro-benzo[1,4]dioxin-6-yl)-5-(4-quinolin-4-yl-piperazin-1-ylmethyl)-oxazolidin-2-one]
≤ 0.031 µg/mL | CCc1ccc(N2C[C@@H](CN3CCN(c4ccnc5ccc(OC)nc45)CC3)OC2=O)cc1 [Example 26, (R)-3-(4-Ethyl-phenyl)-5-[4-(6-methoxy-[1,5]naphthyridin-4-yl)-piperazin-1-ylmethyl]-oxazolidin-2-one]
≤ 0.031 µg/mL | COc1ccc2nccc(N3CC[C@@H](NC[C@@H]4CN(c5ccc6c(c5)NC(=O)CO6)C(=O)O4)C3)c2n1 [Example 72, 6-((R)-5-{[(R)-1-(6-Methoxy-[1,5]naphthyridin-4-yl)-pyrrolidin-3-ylamino]-methyl}-2-oxo-oxazolidin-3-yl)-4H-benzo[1,4]oxazin-3-one]
≤ 0.031 µg/mL | COc1ccc2nccc(N3CCN(C[C@@H]4CN(c5ccc(C)c(F)c5)C(=O)O4)CC3)c2n1 [Example 36, (R)-3-(3-Fluoro-4-methyl-phenyl)-5-[4-(6-methoxy-[1,5]naphthyridin-4-yl)-piperazin-1-ylmethyl]-oxazolidin-2-one]
≤ 0.031 µg/mL | COc1ccc2nccc(N3CCC(NC[C@@H]4CN(c5ccc(C)c(F)c5)C(=O)O4)CC3)c2n1 [Example 121, (R)-3-(3-Fluoro-4-methyl-phenyl)-5-{[1-(6-methoxy-[1,5]naphthyridin-4-yl)-piperidin-4-ylamino]-methyl}-oxazolidin-2-one]
≤ 0.031 µg/mL | COc1ccc2ncc(F)c(N3CCN(C[C@@H]4CN(c5ccc6c(c5)NC(=O)CO6)C(=O)O4)CC3)c2n1 [Example 97, 6-{(R)-5-[4-(3-Fluoro-6-methoxy-[1,5]naphthyridin-4-yl)-piperazin-1-ylmethyl]-2-oxo-oxazolidin-3-yl}-4H-benzo[1,4]oxazin-3-one]
≤ 0.031 µg/mL | N#Cc1ccc2nccc(N3CCC(NC[C@@H]4CN(c5ccc6c(c5)NC(=O)CS6)C(=O)O4)CC3)c2c1 [Example 180, 4-(4-{[(R)-2-oxo-3-(3-oxo-3,4-dihydro-2H-benzo[1,4]thiazin-6-yl)-oxazolidin-5-ylmethyl]-amino}-piperidin-1-yl)-quinoline-6-carbonitrile]
≤ 0.031 µg/mL | COc1ccc2nccc(N3CCC(CNC[C@@H]4CN(c5ccc6c(c5)NC(=O)CS6)C(=O)O4)C3)c2n1 (mixture of isomers) [Example 80, 6-[(R)-5-({[(RS)-1-(6-Methoxy-[1,5]naphthyridin-4-yl)-pyrrolidin-3-ylmethyl]-amino}-methyl)-2-oxo-oxazolidin-3-yl]-4H-benzo[1,4]thiazin-3-one]
≤ 0.031 µg/mL | COc1ccc2nccc(N3CCN(C(=O)C[C@@H]4CN(c5ccc6c(c5)NC(=O)CS6)C(=O)O4)CC3)c2n1 [Example 114, 6-((R)-5-{2-[4-(6-Methoxy-[1,5]naphthyridin-4-yl)-piperazin-1-yl]-2-oxo-ethyl}-2-oxo-oxazolidin-3-yl)-4H-benzo[1,4]thiazin-3-one]
≤ 0.031 µg/mL | COc1ccc2nccc(N3CC[C@H](NCCC4CN(c5ccc6c(c5)NC(=O)CS6)C(=O)O4)C3)c2n1 (mixture of isomers) [Example 86, 6-((RS)-5-{2-[(S)-1-(6-Methoxy-[1,5]naphthyridin-4-yl)-pyrrolidin-3-ylamino]-ethyl}-2-oxo-oxazolidin-3-yl)-4H-benzo[1,4]thiazin-3-one]
≤ 0.031 µg/mL | COc1ccc2nccc(N3CC(NC[C@@H]4CN(c5ccc6c(c5)NC(=O)CO6)C(=O)O4)C3)c2n1 [Example 52, 6-((R)-5-{[1-(6-Methoxy-[1,5]naphthyridin-4-yl)-azetidin-3-ylamino]-methyl}-2-oxo-oxazolidin-3-yl)-4H-benzo[1,4]oxazin-3-one]
